The subject of the data set is Wistar rats, open-field locomotor activity. In words: Open-field locomotor test for nonspecific behavioral effects. Format: in vivo. The settings on record: 3 mg/kg i.p., 1-hr pretreatment. The protocol: Locomotor activity: testing for nonspecific behavioral effects. After completion of the Compound 1 dose response curve, potential nonspecific effects of Compound 1 (3 mg/kg) were assessed using the open-field locomotor test. This test evaluates potential effects on motor activity and anxiety-like behavior. Rats were administered Compound 1 (0 or 3 mg/kg, i.p.) in a randomized counterbalanced order. After a 1-hr pretreatment period (matching the pretreatment period used in the drinking study), rats were placed in the open-field apparatus and locomotor activity was computer-monitored for 1-hr. To assess anxiety-like behavior, activity in the center zone of the open field was analyzed.
Open-field locomotor test for nonspecific behavioral effects. Pharmacological manipulations have the potential to alter rodent behavior by producing nonspecific effects on motor ability, learning and memory, or emotional processing. The open field test is a widely used method for assessing all these potential nonspecific effects in a single test. In this method, rodents are injected with a test compound and placed in an open-field apparatus that records ambulatory behavior in real time via computer analysis of photobeam breaks (FIG. 3A). […] Similarly, Compound 1 (3 mg/kg) had no effect on summary measures of total ambulatory distance (FIG. 3C) or total ambulatory time (FIG. 3D) as compared to vehicle control.

Experimental findings from patent US20250249001A1, “METHODS OF TREATING SUBSTANCE USE DISORDER WITH 4-(3-CYANOPHENYL)-6-PYRIDINYLPYRIMIDINE MGLU5 NEGATIVE ALLOSTERIC MODULATORS” (Tempero Bio, Inc., priority 2022, published 2025) are described below.

The structures appear in SMILES notation.

Take `N#Cc1cc(Cl)cc(-c2cc(-c3ccc(F)cn3)ncn2)c1` [Compound 1, 3-chloro-5-[6-(5-fluoropyridin-2-yl)pyrimidin-4-yl]benzonitrile]: the “motor activity in the center zone of the open field (anxiety-like behavior)” value is listed as “normal avoidance of the center zone”, the total ambulatory distance entry is listed as “no effect” and the total ambulatory time result is “no effect”. The “initial exploration or habituation to the novel open-field environment” value (1-hr test) is “no effect”.
